Several values for one entry are separate records, joined by “and”; a condition that tells them apart may be missing. Equal values may be shown once.
Test: xn = mol fraction of the nth substance listed
Conditions: 101 kPa

NCCN + CC(O)CO
viscosity [mPa·s]
Conditions	293.15 K	298.15 K	303.15 K	308.15 K	313.15 K	318.15 K
x2 = 0.0399	1.85	1.64	1.48	1.33	1.2	1.08
x2 = 0.0807	2.29	2	1.82	1.62	1.43	1.29
x2 = 0.1223	2.72	2.49	2.23	1.95	1.81	1.54
x2 = 0.1649	3.73	3.14	2.84	2.47	2.21	1.89
x2 = 0.2084	4.73	4.04	3.54	3.02	2.63	2.28
x2 = 0.2529	6.26	5.27	4.5	3.9	3.33	–
x2 = 0.2984	8.74	7.05	6	5.01	4.23	–
x2 = 0.3449	11.9	9.4	7.92	6.61	5.49	–
x2 = 0.3926	16.9	12.4	10.5	8.39	6.94	–
x2 = 0.4413	22.8	16.9	13.6	10.7	8.8	–
x2 = 0.4912	30.5	22.5	17.7	13.7	11	–
x2 = 0.5423	39.6	28.8	22.7	17.2	13.6	–
x2 = 0.5946	48.1	34.7	27.4	20.6	16.1	–
x2 = 0.6483	55.8	41.5	31.7	23.6	18.5	–
x2 = 0.7032	62.6	46.3	35.2	25.9	20.3	–
x2 = 0.7596	66.6	49.7	37.8	27.6	21.6	–
x2 = 0.8174	66.8	49.9	38.4	28.4	22.2	–
x2 = 0.8767	64.5	48.8	37.4	27.4	22.1	–
x2 = 0.9375	60.7	46.2	35.5	26.2	21.1	–

CCC(O)CO (stereo unspecified) + O
viscosity
Conditions	293.15 K	298.15 K	303.15 K	308.15 K	313.15 K	318.15 K	323.15 K
x1 = 0.005	1.087 mPa·s	0.964 mPa·s	0.865 mPa·s	0.783 mPa·s	–	–	–
x1 = 0.0099	–	–	0.935 mPa·s	0.838 mPa·s	0.756 mPa·s	0.687 mPa·s	0.628 mPa·s
x1 = 0.01	1.188 mPa·s	1.034 mPa·s	0.919 mPa·s	0.824 mPa·s	–	–	–
x1 = 0.015	1.285 mPa·s	1.129 mPa·s	0.978 mPa·s	–	–	–	–
x1 = 0.02	1.372 mPa·s	1.204 mPa·s	1.099 mPa·s and 1.052 mPa·s	0.976 mPa·s	0.874 mPa·s	0.789 mPa·s	0.716 mPa·s
x1 = 0.0299	–	–	1.268 mPa·s	1.117 mPa·s	0.993 mPa·s	0.89 mPa·s	0.802 mPa·s
x1 = 0.0401	–	–	1.459 mPa·s	1.275 mPa·s	1.126 mPa·s	1.002 mPa·s	0.9 mPa·s
x1 = 0.0496	–	–	1.639 mPa·s	1.422 mPa·s	1.247 mPa·s	1.104 mPa·s	0.986 mPa·s
x1 = 0.0599	–	–	1.856 mPa·s	1.599 mPa·s	1.394 mPa·s	1.229 mPa·s	1.092 mPa·s
x1 = 0.0701	–	–	2.073 mPa·s	1.776 mPa·s	1.54 mPa·s	1.351 mPa·s	1.193 mPa·s
x1 = 0.0799	–	–	2.279 mPa·s	1.944 mPa·s	1.679 mPa·s	1.467 mPa·s	1.292 mPa·s
x1 = 0.0899	–	–	2.493 mPa·s	2.12 mPa·s	1.823 mPa·s	1.587 mPa·s	1.395 mPa·s
x1 = 0.0999	–	3.41 mPa·s	2.736 mPa·s and 2.855 mPa·s	2.311 mPa·s and 2.445 mPa·s	1.98 mPa·s and 2.138 mPa·s	1.718 mPa·s	1.506 mPa·s
x1 = 0.2006	–	6.704 mPa·s	5.489 mPa·s	4.586 mPa·s	3.907 mPa·s	–	–
x1 = 0.3009	–	10.27 mPa·s	8.312 mPa·s	6.887 mPa·s	5.759 mPa·s	–	–
x1 = 0.4001	–	14.49 mPa·s	11.54 mPa·s	9.39 mPa·s	7.779 mPa·s	–	–
x1 = 0.5025	–	19.54 mPa·s	15.45 mPa·s	12.42 mPa·s	10.14 mPa·s	–	–
x1 = 0.5987	–	25.28 mPa·s	19.39 mPa·s	15.5 mPa·s	12.54 mPa·s	–	–
x1 = 0.702	–	31.76 mPa·s	24.06 mPa·s	18.94 mPa·s	15.12 mPa·s	–	–
x1 = 0.8038	–	38.27 mPa·s	28.82 mPa·s	22.48 mPa·s	17.7 mPa·s	–	–
x1 = 0.8972	–	45.12 mPa·s	33.44 mPa·s	25.72 mPa·s	20.14 mPa·s	–	–
